Experimental data from article PMC7876106 (Scientific Reports, 2021).

Tests used:
TERRA = experiment: CD spectroscopy of TERRA mixed with compound; conditions: 1:1 molar ratio, 150 mM KCl buffer
Experimental: All nucleic acids were dissolved in buffer containing 20 mM HEPES pH7.5, 150 mM salt (KCl or LiCl), 20% PEG8000 at the concentration of 10 μM for experiments. A J-815 spectrometer equipped with a PFD-425S Peltier cell holder was used to measure CD spectra at 4 °C between 200 and 340 nm to determine the secondary structure content of various oligo constructs. The molar ellipticity was calculated and the plot was made using Excel.

TRF2-TERRA = experiment: HTRF assay, disruption of TERRA and TRF2 peptide interaction; type: binding; conditions: compared to BRACO-19
Experimental: Mei et al, 2020 TERRA Requires TRF2 GAR Domain
Homogenous Time Resolved Fluorescence (HTRF) assay
All material including peptide, nucleic acids and compounds were dissolved in buffer containing 20mM HEPES pH7.5 150mM KCl. To measure the direct interaction between peptide and nucleic acids, 5µL of FITC-labeled TRF2 GAR peptide was added into each 384 well with a sequential of 2-fold dilution starting from 200nM, 5µL of 10nM biotin-labeled nucleic acid was then added into the well and fixed with the peptide, 5µL of buffer was added to make each well contain 15µL solution. The plate was incubated at room temperature for 30 minutes, following by adding 5µL of streptavidin-Tb-cryptate (Cisbio, PerkinElmer) and the plate was then incubated at room temperature for another 30 minutes before measured by EnVision plate reader (330/520 nm). To measure the compound disruption on peptide and nucleic acids, 5µL of small molecule was added into each 384 well first with a sequential of 2-fold dilution starting from 5µM, followed by 5µL of 10nM nucleic acid and 100nM peptide and then the plate was incubated at room temperature for 30 minutes. The rest step was similar to the direct binding measurement assay. The curves were analyzed using Prism 8.0. […]
Total RNA was isolated as previously described by using TRIzol reagent (Invitrogen) 1. […] RNA concentration was determined by Nanodrop-2000 (ThermoFisher). […]

G4 telomere DNA = experiment: ChIP with BG4 antibody for G4 telomere DNA in LOX cells; type: cell-based, human; conditions: 2 μM, 2 days
Experimental: DNA ChIP assays was performed as described previously 3 with minor modifications. Briefly, 1 x 10^7 LOX cells treated with indicated chemicals (2 µM) for 48 hrs were subject to ChIP analysis and immunoprecipitated DNA was assayed by DNA dot-blot using 32P-labeled (TTAGGG)4 or Alu probe. […]

[1] = test system: TERRA (unlabelled) (RNA, G4) UUAGGGUUAGGGUUAGGGUUAGGG; experiment: circular dichroism; conditions: 150 mM KCl; 20 mM HEPES pH 7.5, 20% PEG8000, 4 °C, 10 μM RNA, mixed 1:1 molar ratio
[2] = test system: TERRA (HTRF assay) (RNA, G4) UUAGGGUUAGGGUUAGGGUUAGGG; experiment: HTRF, disruption of TRF2 peptide complex; conditions: TRF2 GAR peptide displaced
[3] = test system: TeloDNA (HTRF assay) (DNA, G4) TTAGGGTTAGGGTTAGGGTTAGGG; experiment: HTRF, disruption of TRF2 peptide complex; conditions: TRF2 GAR peptide displaced

SMILES	alteration of CD spectrum of TERRA at major peak (~260 nm) (TERRA)	inhibition of TRF2-TERRA by HTRF (TRF2-TERRA)	G4 telomere DNA (BG4 ChIP) relative to PP or PDS treated cells (G4 telomere DNA)	binding [1]	IC50 [2]	IC50 [3]
CCc1c(C)c2cc3nc(cc4nc(cc5c(CC)c(C)c(cc1[nH]2)n5C)C(C)=C4CCC(=O)O)C(CCC(=O)O)=C3C [NMM, N-methyl mesoporphyrin IX]	altered the CD spectrum of TERRA	preferential inhibition of TRF2-TERRA	significant reduction in G4 telomere DNA	yes	1.7 ± 0.8 nM	
CN(C)c1ccc(Nc2c3ccc(NC(=O)CCN4CCCC4)cc3nc3cc(NC(=O)CCN4CCCC4)ccc23)cc1 [BRACO-19]	not BRACO-19 or PP altered the CD spectrum					7.00 ± 0.16 nM
